Measured values from patent US20260041741A1, “CD39 AND CD73 FOR THE THERAPY OF HEMORRHAGIC SHOCK” (The Trustees of Columbia University in the City of New York, priority 2023, published 2026).

B1: rhCD73: recombinant human (rh) CD73 from Daresbury Proteins; CD73 mimic (protein, UniProt P21589 27-549, looked up)
5'-nucleotidase: WELTILHTNDVHSRLEQTSEDSSKCVNASRCMGGVARLFTKVQQIRRAEPNVLLLDAGDQYQGTIWFTVYKGAEVAHFMNALRYDAMALGNHEFDNGVEGLIEPLLKEAKFPILSANIKAKGPLASQISGLYLPYKVLPVGDEVVGIVGYTSKETPFLSNPGTNLVFEDEITALQPEVDKLKTLNVNKIIALGHSGFEMDKLIAQKVRGVDVVVGGHSNTFLYTGNPPSKEVPAGKYPFIVTSDDGRKVPVVQAYAFGKYLGYLKIEFDERGNVISSHGNPILLNSSIPEDPSIKADINKWRIKLDNYSTQELGKTIVYLDGSSQSCRFRECNMGNLICDAMINNNLRHTDEMFWNHVSMCILNGGGIRSPIDERNNGTITWENLAAVLPFGGTFDLVQLKGSTLKKAFEHSVHRYGQSTGEFLQVGGIHVVYDLSRKPGDRVVKLDVLCTKCRVPSYDPLKMDEVYKVILPNFLANGGDGFQMIKDELLRHDSGDQDINVVSTYISKMKVIYPAVEGRIKFS

How the values were obtained:
[1] = tested on: rat model of T/HS; details: posttreatment; cited from earlier work
[2] = tested on: T/HS mice; experiment: Pulmonary neutrophil sequestration (lung MPO activity) after trauma/hemorrhagic shock; assay type: in vivo; details: for neutrophil infiltration (lung MPO activity): NECA pretreatment 0.0025 mg/kg; for neutrophil sequestration / infiltration in lung (MPO activity): wild-type T/HS mice vs vehicle, i.p. pretreatment 30 min before shock, POM1 5 mg/kg, apyrase 125 U/kg, PSB 12379 50 mg/kg, rhCD73 2 mg/kg
Procedure: (§1) In one set of studies, wild-type mice were randomly assigned into the following groups: trauma/sham shock (T/SS) receiving vehicle (saline), trauma/hemorrhagic shock (T/HS) receiving vehicle (saline), T/HS receiving POM1 (5 mg/kg), T/HS receiving apyrase (125 U/kg), T/HS receiving PSB 12379 (50 mg/kg), and T/HS receiving rhCD73 (2 mg/kg). In addition, in another group of studies, CD39^−/−, CD73^−/−, A2BAR^−/− and wild-type type mice were subjected to T/SS or T/HS. Some CD39^−/− and CD73^−/− were pretreated with NECA (0.0025 mg/kg). In pharmacological experiments, mice were pretreated intraperitoneally (30 min before T/SS or T/HS) with various agents.
(§2) The mice were given anesthesia using 1% isoflurane and their rectal temperature was maintained between 36.5 and 37.5° C. using a feedback-controlled homeothermic blanket heating system (Sumno-suite, Kent Scientific). Hemorrhagic shock was induced using a fixed-pressure model. Initially, a midline laparotomy of 2 cm was performed on the anesthetized mice, which was later closed with a 4-0 silk suture (034902, Covetrus, USA). Following this, catheters were placed in the right and left femoral arteries for monitoring blood pressure and blood withdrawal, respectively. A sterile 1-ml syringe with a 30G needle attached to PE-10 tubing filled with 0.2 ml of 1% heparinized saline was used for blood withdrawal, and each mouse received 1U heparin. Blood pressure was monitored using a continuous blood-pressure monitoring system (Powerlab 8/30, ADInstruments, Colorado Springs, CO, USA). After 5 minutes of baseline blood pressure recording, a drug or vehicle was administered to the mice, followed by inducing shock for a period of 2.5 hours, during which the blood pressure was maintained between 28-32 mmHg by withdrawing or reinfusing the shed blood. At the end of the shock period, the mice were resuscitated with Ringer's Lactate at three times the amount of shed blood for 15 minutes (32). Three hours after resuscitation, the mice were euthanized and bronchoalveolar lavage fluid (BALF), blood, and tissue samples were collected. T/SS animals were exposed to the same procedures as other animals except for blood withdrawal (FIG. 1).
Lung, liver, kidney, and gut samples were pooled from 4 mice in the same group, homogenized, sonicated, and treated with a 1×RIPA Buffer with Protease/phosphatase inhibitor cocktail (P8340, Sigma, USA), and the resulting homogenate was centrifuged at 13.000× g for 10 minutes at 4° C. Total protein content was determined by using Qubit 4.0 Fluorometer (Thermo Fisher, USA) as per the manufacturer's instructions.
To evaluate neutrophil sequestration in the lung following T/SS or T/HS, myeloperoxidase (MPO) activity was assessed using an MPO activity kit (MAK068, Sigma, USA). The supernatant of lung lysates was assayed according to the manufacturer's instructions (32).

[3] = tested on: hypoxic CD73 deficient mice; details: exogenous administration; cited from earlier work
[4] = tested on: T/HS mice; experiment: Lung permeability (Evans blue dye) after trauma/hemorrhagic shock; assay type: in vivo; details: wild-type T/HS mice vs vehicle; i.p. pretreatment 30 min before shock; POM1 5 mg/kg, apyrase 125 U/kg, PSB 12379 50 mg/kg, rhCD73 2 mg/kg
Procedure: as §1, §2
Mice were re-anesthetized with isoflurane 3 hours after the end of resuscitation. Evans blue dye (EBD) technique was used to determine lung permeability. EBD was administered through the tail vein, and about 1 ml of blood was withdrawn from the tail artery five minutes later. The supernatant of BALF was assayed at 620 nm spectrophotometrically. The amount of Evans blue dye in the BALF was then expressed as a proportion of the amount in the plasma. (5, 32).

[5] = tested on: T/HS mice; experiment: Plasma AST and ALT levels (liver injury) after trauma/hemorrhagic shock; assay type: in vivo; details: for T/HS-enhanced ALT level in plasma / T/HS-enhanced AST level in plasma: wild-type T/HS mice vs vehicle, i.p. pretreatment 30 min before shock; for liver injury: T/HS mice
Procedure: as §1, §2
Plasma samples were analyzed to determine the levels of aspartate aminotransferase (AST) and alanine aminotransferase (ALT). To do this, the samples were diluted with AST (TR70121 Thermo Fisher, USA) and ALT (TR71122 Thermo Fisher, USA) reagents at a 1:10 ratio, and the resulting light signal was measured using a spectrophotometer at 340 and 405 nm (32).

[6] = tested on: T/HS mice; experiment: Plasma IL-6 and IL-10 by ELISA after trauma/hemorrhagic shock; assay type: in vivo; details: T/HS mice compared to vehicle-treated T/HS mice
Procedure: as §1, §2
IL-6 and IL-10 levels were measured in plasma samples using enzyme-linked immunosorbent assay (ELISA) kits (DY406, DY417; R&D Systems Minneapolis, USA) according to the manufacturer's instructions (32).

[7] = tested on: CD39 deficient mice; details: cardiac, renal, hepatic, intestinal ischemia-reperfusion, exogenous supplementation; cited from earlier work

Row | Molecule | lung permeability [1] | neutrophil infiltration into the lung [1] | neutrophil infiltration (lung MPO activity) ([2]; CD39-/- mice after T/HS) | neutrophil infiltration (lung MPO activity) ([2]; CD73-/- mice after T/HS) | increased vascular permeability [3] | polymorphonuclear neutrophil extravasation [3] | T/HS-induced lung injury (lung permeability, EBD method) [4] | neutrophil sequestration / infiltration in lung (MPO activity) [2] | T/HS-enhanced ALT level in plasma [5] | T/HS-enhanced AST level in plasma [5] | plasma IL-6 levels [6] | plasma IL-10 levels [6] | liver injury [5] | increased ischemic organ injury [7]
1 | N#Cc1c(N)nc(SCC(N)=O)c(C#N)c1-c1ccc(OCC2CC2)cc1 [BAY 60-6583] | decreases | not |  |  |  |  |  |  |  |  |  |  |  | 
2 | CCNC(=O)[C@H]1O[C@@H](n2cnc3c(N)ncnc32)[C@H](O)[C@@H]1O [NECA, 1-(6-Amino-9H-purin-9-yl)-1-deoxy-N-ethyl-β-D-ribofuranuronamide] |  |  | decreased | decreased | reversed | reversed |  |  |  |  |  |  |  | 
3 | O=P(O)(O)CP(=O)(O)OC[C@H]1O[C@@H](n2cnc3c(NCc4ccccc4)ncnc32)[C@H](O)[C@@H]1O.[Na].[Na] [PSB 12379, N6-Benzyl-α,β-methyleneadenosine 5′-diphosphate disodium salt] |  |  |  |  |  |  | increased | increased | increased | increased | increased | reduced |  | 
4 | apyrase |  |  |  |  |  |  | moderated | moderated | suppressed | suppressed | lower | increased | decreased | reversed
5 | sodium polyoxotungstate [POM1] |  |  |  |  |  |  | exacerbated | exacerbated | increased | increased | higher | similar |  | 
6 | B1 |  |  |  |  |  |  | decreased | decreased | suppressed | suppressed | decreased | increased | decreased | 
